Experiments:
[1] = tested on: huntingtin (HTT) protein; assay: Test of the expression level of the HTT protein in T98G cells transfected with ASO RG6042, PH1, PH2, PH3 or Scr; format: cell-based; conditions: T98G glioma cells, 100 μM ASO in lipofectamine 48 h; western blot vs ASO Scr, at least four repetitions
Experimental: (§1) The U87, T98G and U251 glioma cell lines are cultured in DMEM medium («Dulbecco/Vogt modified Eagle's minimal essential medium» supplemented with 10% fetal calf serum and 1% penicillin and streptomycin.
(§2) When the cultures are at 60% confluence, they are transfected with 100 μM of antisense oligonucleotide (ASO) RG6042 (of sequence SEQ ID NO: 1), or PH1 (SEQ ID NO: 2) or PH2 (SEQ ID NO: 3) or PH3 (SEQ ID NO: 4) or Scr in lipofectamine for 48 h. The ASO Scr (for «scramble» is an ASO serving as a control whose sequence SEQ ID NO: 5 is <A*CATG*>A*C*C*G*C*A*C*T*C*A*<CTAT*A> where * is a phosphorothioate bond and the bases between the signs < and > are 2′-O-methoxyethyl RNA.
The cells are rinsed with phosphate-buffered saline (PBS) and then lysed in RIPA-type lysis buffer supplemented with protease and phosphatase inhibitors. The proteins solubilized in the buffer are harvested after centrifugation, denatured in Laemmli loading buffer and deposited on polyacrylamide gel. After migration, the proteins are transferred onto a polyvinylidine difluoride (PVDF) membrane. […] The vinculin is used as a load control.
(§3) T98G cells transfected with ASO RG6042, or ASO PH1, or ASO PH2 or ASO PH3, or ASO Scr, are harvested for testing the expression level of HTT proteins and MGMT.
(§4) The protocol is the same as for the previously cited tests for the expression level of the HTT protein and the expression level of the MGMT protein. The vinculin is also used here as a load control.
FIG. 5 illustrates the result of the western blot produced from cells of the T98G cell line having been transfected with ASO RG6042, with ASO PH1, with ASO PH2, with ASO PH3, or with ASO Scr.
(§5) FIG. 6 illustrates the quantification of the protein levels of HTT in A and of MGMT in B, obtained by western blot after at least four repetitions of the experiment presented in FIG. 5. The statistics were carried out using the Kruskal-wallis test followed by Dunn's multiple comparison test, error bars, SEM, *p<0.05, **p<0.001.

[2] = tested on: 6-O-methylguanine DNA methyltransferase (MGMT) protein; assay: Test of the expression level of the MGMT protein (western blot) in T98G cells; format: cell-based; conditions: for levels of MGMT protein: T98G glioma cells, 100 μM ASO in lipofectamine 48 h, western blot vs ASO Scr, at least four repetitions
Experimental: as §1, §2
Cells transfected with ASO RG6042, ASO Scr, or treated with lipofectamine alone (for control), are harvested for the test of the expression level of the MGMT protein.
The protocol is the same as for the previously cited test of the expression level of the HTT protein with the only change being the use of anti-MGMT antibodies (#2739, from the Cell signaling Technology® brand) in incubation to reveal the MGMT protein. The vinculin is also used here as a load control.
FIG. 4 illustrates in A the result of the western blot produced from cells of the T98G cell line having been transfected with ASO RG6042, with ASO Scr or treated with lipofectamine alone (Ctrl) and, in B, the quantification of MGMT protein levels obtained by western blot after at least 4 repetitions of the experiment presented in A.
as §3, §4, §5

[3] = tested on: U251 cell line; assay: Sensitivity test to the alkylating agent Lomustine (MTT), U251 line; format: cell-based
Experimental: as §1, §2
(§6) The cells transfected with ASO RG6042 or ASO Scr are harvested for the sensitivity test to the alkylating agent Lomustine.
(§7) The Lomustine was prepared in the form of a stock solution of 50 mg/ml (214 mM) in pure ethanol. The solution was filtered to sterilize it (0.2 μm pore filter) and frozen at −20° C. until further use. […]
FIG. 11 illustrates in A a curve showing the percentage of living cells of the U251 line transfected with ASO RG6042 or Scr as a function of the dose of Lomustine received and, in B, the mean of the concentrations of Lomustine measured at the LD50 in 4 different MTT assays for U251 cell line transfected with ASO RG6042 or Scr.

[4] = tested on: U251 cell line; assay: Temozolomide (TMZ) sensitivity test (MTT), U251 line; format: cell-based; conditions: U251 cultures, RG6042 vs control
Experimental: as §1
(§8) When the cultures are at 60% confluence, they are transfected with 100 μM of antisense oligonucleotide (ASO) RG6042 (of sequence SEQ ID NO: 1), or PH1 (SEQ ID NO: 2) or PH2 (SEQ ID NO: 3) or PH3 (SEQ ID NO: 4) or Scr in lipofectamine for 48 h. The ASO Scr (for «scramble» is an ASO serving as a control whose sequence SEQ ID NO: 5 is <A*CATG*>A*C*C*G*C*A*C*T*C*A*<CTAT*A> where * is a phosphorothioate bond and the bases between the signs < and > are 2′-O-methoxyethyl RNA. […]
(§9) The yellow probe of MTT, 3-(4,5-Dimethyl-2-thiazolyl)-2,5-diphenyl-2H-tetrazolium bromide, is then added at a working concentration of 0.5 mg·ml^−1 to each well. […] The optical density (OD) of the contents of each well is then analyzed with a spectrophotometer at wavelengths comprised between 490 nm and 570 nm. […]
FIG. 8 illustrates in A a curve showing the percentage of live cells of the U251 line transfected with ASO RG6042 or treated with lipofectamine alone (Ctrl) as a function of the received dose of TMZ and, in B, the average TMZ concentrations measured at the LD50 in 4 different MTT tests for cells of the […] line transfected with ASO RG6042 or treated with lipofectamine alone (Ctrl).

[5] = tested on: HTT; conditions: patients with Huntington's disease, after 4 intrathecal injections (Tabrizi et al. 2019); cited from earlier work
[6] = tested on: huntingtin protein (HTT); assay: Huntingtin (HTT) protein expression level test (western blot) in transfected glioma cells; format: cell-based; conditions: glioma cells (U251, U87, T98G) transfected with 100 μM ASO in lipofectamine for 48 h; western blot vs ASO Scr / lipofectamine alone
Experimental: as §1, §8
FIG. 1 illustrates in A the results of the western blot carried out from cells of the U251 cell line having been transfected with ASO RG6042, with the ASO Scr or simply treated with lipofectamine alone (Ctrl for control), and, in B, the quantification of HTT protein levels obtained by western blot after 4 repetitions of the experiment presented in A.
FIG. 2 illustrates in A the result of the western blot produced from cells of the U87 cell line having been transfected with ASO RG6042, with ASO Scr or treated with lipofectamine alone (Ctrl), and, in B, the quantification of HTT protein levels obtained by western blot after at least 3 repetitions of the experiment presented in A. […]

[7] = tested on: T98G cell line; assay: Temozolomide (TMZ) sensitivity test (MTT), T98G line; format: cell-based; conditions: T98G cultures, RG6042 vs control
Experimental: as §1, §8, §9
FIG. 10 illustrates in A a curve showing the percentage of living cells of the T98G line transfected with ASO RG6042 or treated with lipofectamine alone (Ctrl) as a function of the received dose of TMZ and, in B, the average TMZ concentrations measured at the LD50 in 6 different MTT tests for cells of the T98G line transfected with ASO RG6042 or treated with lipofectamine alone (Ctrl).

[8] = tested on: T98G cell line; assay: Sensitivity test to the alkylating agent Lomustine (MTT), T98G line; format: cell-based
Experimental: as §1, §2, §6, §7
FIG. 12 illustrates in A a curve showing the percentage of live cells of the T98G line transfected with ASO RG6042 or Scr as a function of the received dose of Lomustine and, in B, the mean of the concentrations of Lomustine measured at the LD50 in 4 different MTT assays for T98G cell line transfected with ASO RG6042 or Scr.

[9] = tested on: U87 cell line; assay: Temozolomide (TMZ) sensitivity test (MTT), U87 line; format: cell-based; conditions: U87 cultures, RG6042 vs control
Experimental: as §1, §8, §9
FIG. 9 illustrates in A a curve showing the percentage of living cells of the U87 line transfected with ASO RG6042 or treated with lipofectamine alone (Ctrl) as a function of the received dose of TMZ and, in B, the averages TMZ concentrations measured at the LD50 in 4 different MTT tests for cells of the […] line transfected with ASO RG6042 or treated with lipofectamine alone (Ctrl).

| Substance | levels of HTT protein [1] | levels of MGMT protein [2] | sensitization to the alkylating agent Lomustine ([3]; U251 cells) | reduction in the LD50 of Lomustine ([3]; U251 cultures, RG6042 vs Scr) [%] | reduction in the LD50 at the TMZ [4] [%] | HTT levels in the cerebrospinal fluid [5] | HTT protein levels [6] | reduction in the LD50 at the TMZ [7] [%] | sensitization to the alkylating agent Lomustine ([8]; T98G cells) | reduction in the LD50 of Lomustine ([8]; T98G cultures, RG6042 vs Scr) [%] | reduction in the LD50 at the TMZ [9] [%] | MGMT levels ([2]; T98G cells transfected with 100 μM ASO in lipofectamine for 48 h, western blot vs ASO Scr / lipofectamine alone) |
| --- | --- | --- | --- | --- | --- | --- | --- | --- | --- | --- | --- | --- |
| ASO PH2: antisense oligonucleotide of sequence SEQ ID NO: 3 reducing HTT and MGMT levels (antisense CTCGACTAAAGCAGGATTTC; listed as DNA, chemistry not given here) | significantly reduce | significantly reduce |  |  |  |  |  |  |  |  |  |  |
| ASO PH1: antisense oligonucleotide of sequence SEQ ID NO: 2 reducing HTT and MGMT levels (antisense TCTCTATTGCACATTCCAAG; listed as DNA, chemistry not given here) | significantly reduce | significantly reduce |  |  |  |  |  |  |  |  |  |  |
| ASO RG6042: antisense oligonucleotide of sequence SEQ ID NO: 1 targeting huntingtin mRNA; sequence from literature, clinical trials in Huntington's disease (antisense CTCAGTAACATTGACACCAC; listed as DNA, chemistry not given here) | significantly reduce | significantly reduce | sensitizes | 41 | 40 | decreased | significantly reduces | 45 | sensitizes | 47 | 32 | significantly reduces |
| ASO PH3: antisense oligonucleotide of sequence SEQ ID NO: 4 reducing HTT and MGMT levels (antisense CCTGCATCAGCTTTATTTGT; listed as DNA, chemistry not given here) | significantly reduce | significantly reduce |  |  |  |  |  |  |  |  |  |  |
